Assay [1] has as its system Candida albicans. In words: Antifungal activity against Candida albicans by microdilution test. Type of assay: functional. On the technique in general: Broth dilution looks for growth in wells or tubes with falling amounts of substance.
Assay [2] relates to Aspergillus flavus. In words: Antifungal activity against Aspergillus flavus by microdilution test. It is filed as functional.
Assay [3] deals with Nakaseomyces glabratus. Kind of assay: Antifungal activity against Candida glabrata by microdilution test. Type of assay: functional.
Assay [4] is described as follows: Antifungal activity against Exophiala xenobiotica by microdilution test. Type of assay: functional.
The nature of assay [5]: Antifungal activity against Aspergillus fumigates by microdilution test. It is filed as functional.
A short description of assay [6]: Antifungal activity against Exophiala oligosperma by microdilution test. Type of assay: functional.
Assay [7] in a line: Antifungal activity against Cladophialophora carrionii by microdilution test. Type of assay: functional.
Assay [8] has as its system Aspergillus terreus. Kind of assay: Antifungal activity against Aspergillus terreus by microdilution test. Type of assay: functional.
Assay [9] relates to Cryptococcus neoformans. In words: Antifungal activity against Cryptococcus neoformans by microdilution test. Type of assay: functional.
Assay [10] relates to Candida parapsilosis. Kind of assay: Antifungal activity against Candida parapsilosis by microdilution test. It is filed as functional. Conditions: for MIC: Lodderomyces parapsilosis.
Assay [11] deals with Pichia kudriavzevii. In words: Antifungal activity against Candida krusei by microdilution test. Type of assay: functional.
For assay [12], the system named is Aspergillus nidulans. In words: Antifungal activity against Aspergillus nidulans by microdilution test. Type of assay: functional, organism-based.
The test system of assay [13] is Exophiala spinifera. In words: Antifungal activity against Exophiala spinifera by microdilution test. Type of assay: functional.
In assay [14] the test system is Meyerozyma guilliermondii. In words: Antifungal activity against Candida guilliermondii by microdilution test. It is filed as functional.
The test system of assay [15] is Aspergillus niger. Kind of assay: Antifungal activity against Aspergillus niger by microdilution test. It is filed as functional.

Activity and MIC data for 14 molecules are collected here from ChEMBL document CHEMBL1649364, “Synthesis and antifungal activity of some substituted phenothiazines and related compounds” (2011).

SMILES strings stand for the structures. Values after ≈ are worked out from the molar mass of the structure shown. Active and inactive are the calls of the source. No cut-off for these calls is given here.

The term MIC denotes the lowest concentration found to suppress growth.

For `CC(=O)N1c2ccccc2Sc2ccccc21`, the outcome in assay [1], in assay [2], in [3], in assay [4], in [5] and in assay [6] was inactive. In addition, the outcome in [7], in assay [8], in [9], in assay [10], in [11] and in [12] was inactive. The result in [13], in assay [14] and in assay [15] was inactive.

Turning to `C[C@@H]1[C@H](O)[C@@H](C)/C=C/C=C/C=C/C=C/C=C/C=C/C=C/[C@H](O[C@@H]2O[C@H](C)[C@@H](O)[C@H](N)[C@@H]2O)C[C@@H]2O[C@](O)(C[C@@H](O)C[C@@H](O)[C@H](O)CC[C@@H](O)C[C@@H](O)CC(=O)O[C@H]1C)C[C@H](O)[C@H]2C(=O)O` [AMPHOTERICIN B], the minimal inhibitory concentration (MIC) in assay [1] was 0.5 µg/mL (≈ 0.541 µM); in [2], 0.25 µg/mL (≈ 0.271 µM); in [3], 0.25 µg/mL (≈ 0.271 µM); in [4], 1 µg/mL (≈ 1.08 µM); in assay [5], 0.5 µg/mL (≈ 0.541 µM); in [8], 2 µg/mL (≈ 2.16 µM). Moreover, the minimum inhibitory concentration (MIC) in assay [10] worked out at 0.5 µg/mL (≈ 0.541 µM); in assay [11], 0.25 µg/mL (≈ 0.271 µM); in assay [13] it was 1 µg/mL (≈ 1.08 µM); in assay [14], 1 µg/mL (≈ 1.08 µM); in assay [15] it was 0.5 µg/mL (≈ 0.541 µM).

Consider `CN(C/C=C/C#CC(C)(C)C)Cc1cccc2ccccc12` [TERBINAFINE], for which the MIC in [1] amounted to 0.5 µg/mL (≈ 1.72 µM); in assay [2] it was 0.25 µg/mL (≈ 0.858 µM); in assay [3] it was 0.06 µg/mL (≈ 0.206 µM); in assay [4], 0.06 µg/mL (≈ 0.206 µM); in assay [5], 0.25 µg/mL (≈ 0.858 µM); in assay [6] it was 0.06 µg/mL (≈ 0.206 µM). In addition, the minimum inhibitory concentration (MIC) in assay [7] worked out at 0.25 µg/mL (≈ 0.858 µM); in [8] it was 0.06 µg/mL (≈ 0.206 µM); in assay [9] it was 0.25 µg/mL (≈ 0.858 µM); in assay [10], 0.06 µg/mL (≈ 0.206 µM); in assay [11], 0.06 µg/mL (≈ 0.206 µM); in assay [13], 0.06 µg/mL (≈ 0.206 µM). In addition, the MIC in assay [14] worked out at 0.5 µg/mL (≈ 1.72 µM); in [15] it was 0.125 µg/mL (≈ 0.429 µM).

Consider `O=C(CCl)N1c2ccccc2Sc2ccccc21`, for which the MIC in assay [1] is 32 µg/mL (≈ 116 µM); in assay [2] it was 32 µg/mL (≈ 116 µM); in assay [3], greater than 512 µg/mL; in assay [4], 16 µg/mL (≈ 58 µM); in assay [5] it was 16 µg/mL (≈ 58 µM); in [6], 16 µg/mL (≈ 58 µM). The MIC in assay [7] came to 4 µg/mL (≈ 14.5 µM); in assay [8], 16 µg/mL (≈ 58 µM); in [9], 8 µg/mL (≈ 29 µM); in assay [10], 32 µg/mL (≈ 116 µM); in [11], 32 µg/mL (≈ 116 µM); in assay [13] it was 16 µg/mL (≈ 58 µM). For the same molecule, the minimal inhibitory concentration (MIC) in assay [14] was determined as 32 µg/mL (≈ 116 µM); in assay [15], 2 µg/mL (≈ 7.25 µM).

For `O=C(CCl)N1c2ccccc2Oc2ccccc21`, the result in [1], in assay [2], in assay [3], in [4], in [5] and in assay [6] was inactive. Besides, the result in assay [7], in [8], in assay [9], in assay [10], in assay [11] and in assay [12] was inactive. The result in [13], in assay [14] and in [15] was inactive.

As for `OC(Cn1cncn1)(Cn1cncn1)c1ccc(F)cc1F` [FLUCONAZOLE], the minimal inhibitory concentration (MIC) in [1] turned out to be 2 µg/mL (≈ 6.53 µM); in assay [2], 16 µg/mL (≈ 52.2 µM); in assay [3] it was 1 µg/mL (≈ 3.27 µM); in [4] it was 16 µg/mL (≈ 52.2 µM); in assay [5] it was 16 µg/mL (≈ 52.2 µM); in [8], 16 µg/mL (≈ 52.2 µM). For the same molecule, the MIC came out at 8 µg/mL (≈ 26.1 µM) in [9]; 1 µg/mL (≈ 3.27 µM) in assay [10]; 64 µg/mL (≈ 209 µM) in assay [11]; 16 µg/mL (≈ 52.2 µM) in assay [13]; 4 µg/mL (≈ 13.1 µM) in assay [14]; 16 µg/mL (≈ 52.2 µM) in assay [15].

In the case of `ClCCCN1c2ccccc2Sc2ccccc21`, the outcome in assay [1], in assay [2], in [3], in assay [4], in assay [5] and in [6] was inactive. The outcome in assay [7], in assay [8], in assay [9], in assay [10], in assay [11] and in assay [12] was inactive. Also, the outcome in assay [13], in assay [14] and in assay [15] was inactive.

Regarding `O=C(CCCl)N1c2ccccc2Sc2ccccc21`, the result in assay [1], in assay [2], in assay [3], in assay [4], in [5] and in assay [6] was inactive. The result in assay [7], in assay [8], in assay [9], in [10], in assay [11] and in [12] was inactive. Also, the outcome in [13], in [14] and in assay [15] was inactive.

With `CN(C)S(=O)(=O)c1ccc2c(c1)N(CCCN1CCC(CCO)CC1)c1ccccc1S2` [PIPOTIAZINE], the MIC was 256 µg/mL (≈ 538 µM) in assay [1]; greater than 512 µg/mL in [2]; 256 µg/mL (≈ 538 µM) in assay [3]; 512 µg/mL (≈ 1080 µM) in [4]; greater than 512 µg/mL in [5]; 512 µg/mL (≈ 1080 µM) in assay [6]. The MIC was 256 µg/mL (≈ 538 µM) in assay [7]; greater than 512 µg/mL in [8]; 256 µg/mL (≈ 538 µM) in [9]; 256 µg/mL (≈ 538 µM) in assay [10]; 512 µg/mL (≈ 1080 µM) in assay [11]; 256 µg/mL (≈ 538 µM) in assay [13]. Also, the MIC in [14] is 256 µg/mL (≈ 538 µM); in [15], greater than 512 µg/mL.

As to `CN(C)S(=O)(=O)c1ccc2c(c1)N(C(=O)CCCl)c1ccccc1S2`, the outcome in assay [1], in assay [2], in assay [3], in assay [4], in assay [5] and in [6] was inactive. Also, the result in assay [7], in [8], in assay [9], in assay [10], in assay [11] and in [12] was inactive. Moreover, the outcome in assay [13], in [14] and in assay [15] was inactive.

In the case of `CCC(C)n1ncn(-c2ccc(N3CCN(c4ccc(OCC5COC(Cn6cncn6)(c6ccc(Cl)cc6Cl)O5)cc4)CC3)cc2)c1=O` (configuration not stated) [ITRACONAZOLE], the MIC was 0.125 µg/mL (≈ 0.177 µM) in [1]; 0.125 µg/mL (≈ 0.177 µM) in assay [2]; 0.25 µg/mL (≈ 0.354 µM) in assay [3]; 0.06 µg/mL (≈ 0.085 µM) in assay [4]; 0.25 µg/mL (≈ 0.354 µM) in assay [5]; 0.125 µg/mL (≈ 0.177 µM) in assay [6]. The minimal inhibitory concentration (MIC) in [7] came to 0.06 µg/mL (≈ 0.085 µM); in assay [8], 0.125 µg/mL (≈ 0.177 µM); in assay [9], 0.25 µg/mL (≈ 0.354 µM); in [10], 0.125 µg/mL (≈ 0.177 µM); in assay [11], 0.06 µg/mL (≈ 0.085 µM); in assay [13], 0.06 µg/mL (≈ 0.085 µM). Moreover, the MIC in assay [14] was determined as 0.5 µg/mL (≈ 0.709 µM); in [15], 0.125 µg/mL (≈ 0.177 µM).

For the molecule `Nc1nc(=O)[nH]cc1F` [FLUCYTOSINE], the MIC in assay [1] was 2 µg/mL (≈ 15.5 µM); in assay [2] it was 1 µg/mL (≈ 7.75 µM); in assay [3] it was 1 µg/mL (≈ 7.75 µM); in [4] it was 8 µg/mL (≈ 62 µM); in assay [5] it was 0.5 µg/mL (≈ 3.87 µM); in assay [6], 4 µg/mL (≈ 31 µM). Besides, the MIC in assay [7] is 1 µg/mL (≈ 7.75 µM); in assay [8], 1 µg/mL (≈ 7.75 µM); in [9] it was 0.5 µg/mL (≈ 3.87 µM); in assay [10] it was 0.5 µg/mL (≈ 3.87 µM); in [11], 0.5 µg/mL (≈ 3.87 µM); in [13], 2 µg/mL (≈ 15.5 µM). The MIC in assay [14] was found to be 1 µg/mL (≈ 7.75 µM); in assay [15], 0.5 µg/mL (≈ 3.87 µM).

Regarding `O=C(CCl)N(c1ccccc1)c1ccccc1`, the outcome in assay [1], in assay [2], in assay [3], in assay [4], in [5] and in assay [6] was inactive. Besides, the outcome in [7], in [8], in assay [9], in assay [10], in [11] and in [12] was inactive. For the same molecule, the outcome in assay [13], in assay [14] and in assay [15] was inactive.

On to `CC(CN1c2ccccc2Sc2ccccc21)N(C)C` (configuration not stated) [PROMETHAZINE], for which the minimum inhibitory concentration (MIC) is greater than 512 µg/mL in assay [1]; 256 µg/mL (≈ 900 µM) in assay [2]; greater than 512 µg/mL in assay [3]; 256 µg/mL (≈ 900 µM) in assay [4]; 256 µg/mL (≈ 900 µM) in [5]; 256 µg/mL (≈ 900 µM) in [6]. For the same molecule, the MIC was found to be 512 µg/mL (≈ 1800 µM) in assay [7]; 256 µg/mL (≈ 900 µM) in [8]; 256 µg/mL (≈ 900 µM) in assay [9]; 512 µg/mL (≈ 1800 µM) in assay [10]; 256 µg/mL (≈ 900 µM) in assay [11]; 256 µg/mL (≈ 900 µM) in [13]. Further, the MIC in assay [14] was 512 µg/mL (≈ 1800 µM); in assay [15] it was 256 µg/mL (≈ 900 µM).
